Data as given in patent US6930110B2, “Substituted alkylaminopyridazinone derivatives, process for the preparation thereof and pharmaceutical composition containing the same” (Egis Gyogyszergyar Rt., priority 2001, dated 2005).
Structures can show the parent of a compound that is named as a salt. Where two headings read alike, the source gives them in different places.

What was measured:
Male Sprague-Dawley rats = assay: Elevated plus-maze test in rats; format: in vivo, rat; conditions: 60 min after treatment, minimal effective dose regarding the time spent in the open arms
Excerpt: Tests have been performed as described by Pellow and co-workers [J. Neurosci. Methods, 14, 149 (1985)]. A wooden cross, 15 cm wide with 100 cm long arms was used for the experiments. The sides and ends of two opposite arms of the cross were equipped with 40 cm high walls, however, the arms were open to the 15×15 cm central area (closed arms). The two other opposite arms were not encircled by walls (open arms).
Male Sprague-Dawley rats weighing 200-220 g were used for the experiments. The animals were placed in the central area of the equipment 60 min after treatment and the following four parameters have been observed for the 5 min test time: • time spent in the open arms, • time spent in the closed arms, • number of entries into the open arms, • number of entries into the closed arms.
The effect was expressed as percent increase in either the time (measured in sec) spent in the open arms or number of entries into the open arms. MEDs (minimal effective dose) were determined for each compound regarding the time spent in the open arms. Buspirone [8-{4-[4-(2-pyrimidinyl)-1-piperazinyl]butyl}-8-azaspiro[4,5]decane-7,9-dione] was used as the reference substance.

mouse = assay: Inhibition of spontaneous motor activity (sedative effect); format: in vivo
Experimental: The effect on spontaneous motor activity was investigated according to Borsy and co-workers [Borsy, J. et al, Arch. Int. Pharmacodyn., 124, 180-190 (1960)] in a ten channel Dews instrument, with 1-1 animal in each channel. Animals were placed into the instrument 60 min after per os treatment with either vehicle or test compound, and interruptions of infrared beams were recorded for 30 min. […] Inhibitory doses (ID50)have been determined by regression analysis. Diazepam was used as the reference substance.

male Wistar rats [1] = assay: Vogel lick-conflict (drinking conflict) test; format: in vivo, rat; conditions: intraperitoneally, 30 min prior to test, number of tolerated shocks
Experimental: Experiments were performed in a PC operated system (LIIKOSYS, Experimentria, Hungary) consisted of 8 test chambers (20 cm×20 cm×20 cm Plexiglas boxes) each of which was equipped with a water fountain system mounted at appropriate height on the wall of the chamber and metal grid floor for delivering electric shocks. 160-180 g male Wistar rats N=8) were deprived of drinking water 48 h and fasted for 24 h prior to test. Test and reference compounds or vehicle were administered intraperitoneally, 30 min prior to test. All procedures were carried out in a quiet, air-conditioned room between 07:30 and 13:00 h at an ambient temperature of 23±2° C. At the beginning of the test the animals were placed in the test chamber where they had free access to drinking water for a 30 s grace period. After that, electric shocks (600 μA, 0.6 s) were applied through the drinking spout following every 20 licks during the 5 min test period (Vogel et al, 1971). Number of punished licks were recorded and stored by an IBM compatible computer. Means±SEM of numbers of tolerated shocks were calculated in each group, statistical analysis of data was performed by one way ANOVA followed by Duncan's test ([…]). Diazepam [7-chloro-1,3-dihydro-1-methyl-5-phenyl-2H-1,4-benzodiazepine-2-one] was used as the reference substance.

male Wistar rats [2] = assay: Effects on blood pressure, radiotelemetry in conscious rats; conditions: for Mean blood pressure after treatment with test compound (mmHg), Mean: mean arterial blood pressure for 6 hours after oral treatment; for Results of statistical evaluation: test compound compared to placebo, mean arterial blood pressure for 6 hours after treatment
Experimental: (§1) The experiments were performed in conscious, freely moving, male Wistar rats using a radiotelemetry system (Data Sciences International, St. Paul, Minn., USA). Prior to treatments rats were implanted with transmitters (type: TL11M2-C50-PXT) that permitted continues monitoring of arterial blood pressure. Under sterile surgical conditions, catheter of the transmitter was introduced into the abdominal aorta for measurement of arterial blood pressure and the transmitter was sutured to the abdominal wall of animals anaesthetised with pentobarbital-Na (60 mg/kg, i.p.; Nembutal inj. Phylaxia-Sanofi, Budapest). After surgery the animals were treated with an antibiotic (1 ml/kg i.m. Tardomyocel comp. inj. ad us. vet., Bayer A G, Leverkusen, Germany). A 7 day postoperative recovery period was allowed. Radio signals emitted by the transmitters were detected by RLA1000 type receivers placed under each animal's cage. The data were collected, saved and evaluated using the Dataquest IV. software from Data Sciences. The computer was set to sample the parameters for 10 seconds in every second minute.
(§2) The test substances or vehicle (methyl cellulose 0.4% w/v) were administered orally by gavage in a volume of 1 ml/kg at about 10 a.m. The effects of test items were measured for 6 hours. The effect of each compound was compared with that caused by vehicle treatment using two-way analysis of variance for repeated measures with Scheffe's post hoc test.

male Wistar rats [3] = conditions: rat, in vivo
Experimental: as §1, §2

[4] = per os, 60 min before test, interruptions of infrared beams recorded for 30 min

Structure (SMILES) | melting point | MED in mg/kg po. (Male Sprague-Dawley rats) | MED in mg/kg ip. (male Wistar rats [1]) | other results
O=c1[nH]ncc(Cl)c1NCCCN(CCOc1cccc2c1OCCO2)Cc1ccccc1 (as salt: hydrochloride) [Example 3, 4-{3-[benzyl-[2-(2,3-dihydrobenzo[1,4]dioxine-5-yloxy)ethyl]-amino]propylamino}-5-chloro-2H-pyridazine-3-one hydrochloride] | 207 to 209 °C | – | – | –
O=c1[nH]nccc1NCCCNCCOc1cccc2c1OCCO2 (as salt: hydrochloride) [Example 9, 4-{3-[2-(2,3-dihydrobenzo[1,4]dioxine-5-yloxy)ethylamino]-propylamino}-2H-pyridazine-3-one] | 203 to 204 °C | – | – | –
CN(CCN1CCN(c2cccc3c2OCCO3)CC1)c1cnn(C)c(=O)c1 (as salt: hydrochloride) [Example 16, 5-(2-(4-(2,3-dihydro-benzo[1,4]dioxine-5-yl)-piperazine-1-yl)-ethyl-methyl-amino)-2-methyl-2H-pyridazine-3-one-hydrochloride] | 249 to 251 °C | – | – | –
O=C1CC2(CCCC2)CC(=O)N1CCCCN1CCN(c2ncccn2)CC1 [Buspirone, 8-{4-[4-(2-pyrimidinyl)-1-piperazinyl]butyl}-8-azaspiro[4,5]decane-7,9-dione, reference compound] | – | 3.0 mg/kg | – | –
CN1C(=O)CN=C(c2ccccc2)c2cc(Cl)ccc21 [Diazepam, 7-chloro-1,3-dihydro-1-methyl-5-phenyl-2H-1,4-benzodiazepine-2-one, reference compound] | – | – | 5.0 mg/kg | ID50 in mg/kg po. (mouse; [4]): 7.0 mg/kg
CCCN(CCCNc1c(Cl)cn[nH]c1=O)CCOc1cccc2c1OCCO2 [Example 2, 5-chloro-4-(3-{[2-(2,3-dihydrobenzo[1,4]dioxine-5-yloxy)-ethyl]propyl-amino}propylamino)-2H-pyridazine-3-one] | 87 to 89 °C | 10.0 mg/kg | 20.0 mg/kg | –
O=c1[nH]ncc(Cl)c1NCCCN(CCOc1cccc2c1OCCO2)Cc1ccccc1 [Example 3, 4-{3-[benzyl-[2-(2,3-dihydrobenzo[1,4]dioxine-5-yloxy)ethyl]-amino]propylamino}-5-chloro-2H-pyridazine-3-one hydrochloride] | – | 10.0 mg/kg | – | –
O=c1[nH]ncc(Cl)c1NCCCCN1CCN(c2cccc3c2OCCO3)CC1 [Example 4, 5-chloro-4-{4-[4-(2,3-dihydrobenzo[1,4]dioxine-5-yl)-piperazine-1-yl]-butylamino}-2H-piridazine-3-one] | – | 1.0 mg/kg | 20.0 mg/kg | ID50 in mg/kg po. (mouse; in vivo, po): 30.0 mg/kg
O=c1[nH]ncc(NCCN2CCN(c3cccc4c3OCCO4)CC2)c1Cl [Example 5, 4-chloro-5-{2-[4-(2,3-dihydrobenzo[1,4]dioxine-5-yl)-piperazin-1-yl]-ethylamino}-2H-pyridazine-3-one] | 217 to 219 °C | 0.003 mg/kg | – | ID50 in mg/kg po. (mouse; [4]): 11.0 mg/kg
Cn1ncc(NCCN2CCN(c3cccc4c3OCCO4)CC2)c(Cl)c1=O.O [Example 6, 4-chloro-5-{2-[4-(2,3-dihydro-1,4-benzodioxine-5-yl)-piperazine-1-yl]-ethylamino}-2-methyl-2H-piridazine-3-one monohydrate] | – | – | <5.0 mg/kg | Mean blood pressure after treatment with test compound (mmHg), Mean (male Wistar rats [2]): 106.3 mmHg; Results of statistical evaluation (male Wistar rats [2]): N.S.
CN(CCN1CCN(c2cccc3c2OCCO3)CC1)c1cn[nH]c(=O)c1Cl [Example 7, 4-chloro-5-{2-[4-(2,3-dihydrobenzo[1,4]dioxine-5-yl)-piperazine-1-yl]ethyl}methylamino-2H-pyridazine-3-one] | – | – | <10.0 mg/kg | Results of statistical evaluation (male Wistar rats [3]): N.S.; Mean blood pressure after treatment with test compound (mmHg), Mean (male Wistar rats [3]; po): 97.0 mmHg
CC(C)(C)n1ncc(Cl)c(NCCN2CCN(c3cccc4c3OCCO4)CC2)c1=O [Example 8, 2-tert.-butyl-5-chloro-4-{2-[4-(2,3-dihydrobenzo-[1,4]dioxine-5-yl)piperazine-1-yl]ethylamino}-2H-pyridazine-3-one] | 177 to 178 °C | – | – | Mean blood pressure after treatment with test compound (mmHg), Mean (male Wistar rats [2]): 95.4 mmHg; Results of statistical evaluation (male Wistar rats [2]): N.S.
O=c1[nH]nccc1NCCCNCCOc1cccc2c1OCCO2 [Example 9, 4-{3-[2-(2,3-dihydrobenzo[1,4]dioxine-5-yloxy)ethylamino]-propylamino}-2H-pyridazine-3-one] | – | 0.3 mg/kg | – | ID50 in mg/kg po. (mouse; [4]): >30.0 mg/kg
O=c1cc(NCCN2CCN(c3cccc4c3OCCO4)CC2)cn[nH]1 [Example 10, 5-{2-[4-(2,3-dihydro-1,4-benzodioxine-5-yl)-piperazine-1-yl]-ethylamino}-2H-pyridazine-3-one] | 244 to 246 °C | 0.01 mg/kg | 5.0 mg/kg | ID50 in mg/kg po. (mouse; [4]): 53.3 mg/kg
O=c1cc(NCCN2CCN(c3cc(Cl)cc4c3OCCO4)CC2)cn[nH]1 [Example 11, 5-{2-[4-(7-chloro-2,3-dihydrobenzo[1,4]dioxine-5-yl)-piperazine-1-yl]ethylamino}-2H-pyridazine-3-one] | 115 to 117 °C | – | 20.0 mg/kg | Mean blood pressure after treatment with test compound (mmHg), Mean (male Wistar rats [2]): 101.5 mmHg; Results of statistical evaluation (male Wistar rats [2]): N.S.
O=c1cc(NCCCN2CCN(c3cccc4c3OCCO4)CC2)cn[nH]1 [Example 12, 5-{3-[4-(2,3-dihydro-1,4-benzodioxine-5-yl)piperazine-1-yl]-propylamino}-2H-pyridazine-3-one] | 158 to 160 °C | – | – | Mean blood pressure after treatment with test compound (mmHg), Mean (male Wistar rats [2]): 89.9 mmHg; Results of statistical evaluation (male Wistar rats [2]): N.S.
O=c1cc(NCCNCCOc2cccc3c2OCCO3)cn[nH]1 [Example 13, 5-{2-[2-(2,3-dihydrobenzo[1,4]dioxine-5-yloxy)ethylamino)-ethylamino)-2H-pyridazine-3-one] | 81 to 83 °C | – | – | –
Cn1ncc(NCCN2CCN(c3cccc4c3OCCO4)CC2)cc1=O [Example 14, 5-{2-[4-(2,3-dihydro1,4-benzodioxine-5-yl)-piperazine-1-yl]-ethylamino}-2-methyl-2H-pyridazine-3-one] | 188 to 190 °C | – | – | –
CN(CCN1CCN(c2cccc3c2OCCO3)CC1)c1cnn(C)c(=O)c1 [Example 16, 5-(2-(4-(2,3-dihydro-benzo[1,4]dioxine-5-yl)-piperazine-1-yl)-ethyl-methyl-amino)-2-methyl-2H-pyridazine-3-one-hydrochloride] | – | – | – | Mean blood pressure after treatment with test compound (mmHg), Mean (male Wistar rats [2]): 105.2 mmHg; Results of statistical evaluation (male Wistar rats [2]): N.S.
CN(CCN1CCN(c2cccc3c2OCCO3)CC1)c1cnn(C)c(=O)c1Cl [Example 17, 4-chloro-5-({2-[4-(2,3-dihydro-benzo[1,4]dioxine-5-yl)-piperazine-1-yl]-ethyl}-methyl-amino)-2-methyl-2H-pyridazine-3-one] | 114 to 116 °C | – | – | –
